Source: DBAASP
Converted amounts (≈) assume the structure as drawn.

Key:
Experiment in all cases: ≥ marks a high value that may be exact or a test limit, other limits are often not marked, values filed in µg/mL are converted to µM
[1] = system: Staphylococcus aureus ATCC BAA-41
Escherichia coli BL21 = system: Escherichia coli BL21
[2] = system: Staphylococcus aureus ATCC 6538P
[3] = system: Pseudomonas aeruginosa PAO1
[4] = system: Staphylococcus epidermidis
[5] = system: Staphylococcus aureus ATCC 25923
Bacillus cereus = system: Bacillus cereus
Micrococcus luteus = system: Micrococcus luteus
Pseudomonas aeruginosa = system: Pseudomonas aeruginosa
Enterobacter cloacae = system: Enterobacter cloacae
Pasteurella multocida = system: Pasteurella multocida
Enterococcus faecalis = system: Enterococcus faecalis
Leuconostoc lactis = system: Leuconostoc lactis
Streptococcus uberis = system: Streptococcus uberis
Escherichia coli = system: Escherichia coli
Listeria innocua = system: Listeria innocua
[6] = system: Staphylococcus aureus ATCC 29213
[7] = system: Enterococcus faecalis ATCC 29212
Escherichia coli UB1005 = system: Escherichia coli UB1005
[8] = system: Pseudomonas aeruginosa K799
Listeria monocytogenes = system: Listeria monocytogenes
[9] = system: Salmonella enterica subsp. enterica serovar Typhimurium ATCC 14028s
[10] = system: Staphylococcus epidermidis ATCC 12228
[11] = system: Salmonella enterica subsp. enterica serovar Typhimurium C77-31
[12] = system: Salmonella enterica subsp. enterica serovar Typhimurium ATCC 14028
[13] = system: Salmonella enterica subsp. enterica serovar Typhi CMCC 50071
[14] = system: Salmonella enterica subsp. enterica serovar Pullorum C79-13
[15] = system: Pseudomonas aeruginosa 910
[16] = system: Pseudomonas aeruginosa 919
[17] = system: Pseudomonas aeruginosa 253
Candida albicans = system: Candida albicans
[18] = system: Salmonella enterica serovar Typhimurium
[19] = system: Pseudomonas aeruginosa H103
[20] = system: Staphylococcus aureus ATCC 9144
[21] = system: Candida albicans ATCC 10231
[22] = system: Escherichia coli ATCC 25922
Aureobasidium pullulans = system: Aureobasidium pullulans
[23] = system: Pseudomonas aeruginosa ATCC 27853
[24] = system: Corynebacterium glutamicum ATCC 13032
[25] = system: Micrococcus luteus ATCC 9341
[26] = system: Staphylococcus aureus ATCC 6538
[27] = system: Pseudomonas aeruginosa ATCC 9027
[28] = system: Candida albicans ATCC 36232
[29] = system: Escherichia coli ATCC 2592

CC[C@H](C)[C@H](NC(=O)[C@H](CCCCN)NC(=O)[C@H](CCCCN)NC(=O)[C@H](Cc1ccccc1)NC(=O)[C@H](CC(C)C)NC(=O)[C@H](CCCCN)NC(=O)[C@H](Cc1c[nH]c2ccccc12)NC(=O)[C@@H](N)CCCCN)C(=O)NCC(=O)N[C@@H](CCCCN)C(=O)N[C@H](C(=O)N[C@@H](CC(C)C)C(=O)N[C@@H](CCCCN)C(=O)N[C@@H](CCCCN)C(=O)N[C@@H](CC(C)C)C(=O)O)C(C)C [KWKLFKKIGKVLKKL]
MIC [1]: 16 µM (≈ 29.7 µg/mL)
MIC (Escherichia coli BL21): 1 µM (≈ 1.86 µg/mL)
MIC [2]: 5.66 µM (≈ 10.5 µg/mL)
MIC [3]: 1.41 µM (≈ 2.63 µg/mL)
MIC [4]: 0.25 µM (≈ 0.464 µg/mL)

CC[C@H](C)[C@H](NC(=O)CNC(=O)[C@H](CO)NC(=O)[C@@H](NC(=O)[C@H](CC(C)C)NC(=O)[C@H](CCC(=O)O)NC(=O)[C@H](CC(N)=O)NC(=O)[C@H](C)NC(=O)[C@H](CCCCN)NC(=O)[C@H](CCC(=O)O)NC(=O)[C@H](CCCCN)NC(=O)[C@@H](NC(=O)[C@H](CCCCN)NC(=O)[C@H](CCC(=O)O)NC(=O)[C@H](Cc1c[nH]c2ccccc12)NC(=O)[C@H](CC(C)C)NC(=O)CN)C(C)C)C(C)C)C(=O)N[C@H](C(=O)N[C@@H](CCC(=O)O)C(=O)NCC(=O)N[C@H](C(=O)N[C@@H](CCCCN)C(N)=O)C(C)C)C(C)C [GLWEKVKEKANELVSGIVEGVK]
MIC [5]: > 41.4 µM
MIC (Bacillus cereus): ≥ 41.4 µM
MIC (Micrococcus luteus): ≥ 41.4 µM
MIC (Pseudomonas aeruginosa): > 41.4 µM
MIC (Enterobacter cloacae): ≥ 41.4 µM
MIC (Pasteurella multocida): ≥ 41.4 µM
MIC (Enterococcus faecalis): ≥ 41.4 µM
MIC (Leuconostoc lactis): ≥ 41.4 µM
MIC (Streptococcus uberis): ≥ 41.4 µM
MIC (Escherichia coli): > 41.4 µM
MIC (Listeria innocua): ≥ 41.4 µM
MIC [6]: > 41.4 µM
MIC [4]: ≥ 41.4 µM

CC[C@H](C)[C@H](NC(=O)[C@H](CCCN=C(N)N)NC(=O)[C@H](CO)NC(=O)[C@H](CC(C)C)NC(=O)[C@@H](N)CCCN=C(N)N)C(=O)N[C@H](C(=O)N[C@H](C(=O)N[C@H](C(=O)N[C@@H](CCCN=C(N)N)C(=O)N[C@H](C(=O)N[C@@H](CO)C(=O)N[C@@H](CCCN=C(N)N)C(N)=O)C(C)C)[C@@H](C)CC)C(C)C)C(C)C [RLSRIVVIRVSR]
MIC [5]: 2.75 µM (≈ 4 µg/mL)
MIC [7]: 2.75 µM (≈ 4 µg/mL)
MIC (Escherichia coli UB1005): 1.38 µM (≈ 2 µg/mL)
MIC [8]: 11 µM (≈ 16 µg/mL)
MIC (Listeria monocytogenes): 0.172 µM (≈ 0.25 µg/mL)
MIC [9]: 22 µM (≈ 32 µg/mL)
MIC [4]: 0.688 µM (≈ 0.999 µg/mL)

NC(=O)CC[C@H](NC(=O)[C@H](Cc1c[nH]c2ccccc12)NC(=O)[C@H](CCCN=C(N)N)NC(=O)[C@H](CCCN=C(N)N)NC(=O)[C@H](Cc1c[nH]c2ccccc12)NC(=O)[C@@H](N)Cc1ccccc1)C(=O)N[C@@H](Cc1c[nH]c2ccccc12)C(=O)N[C@@H](CCCN=C(N)N)C(=O)N[C@@H](CCCN=C(N)N)C(=O)N[C@@H](CCCN=C(N)N)C(=O)N[C@@H](Cc1c[nH]c2ccccc12)C(=O)N[C@@H](Cc1ccccc1)C(N)=O [FWRRWQWRRRWF]
MIC [5]: 16 µM (≈ 31.4 µg/mL)
MIC [10]: 8 µM (≈ 15.7 µg/mL)
MIC (Escherichia coli UB1005): 16 µM (≈ 31.4 µg/mL)
MIC [11]: 16 µM (≈ 31.4 µg/mL)
MIC [6]: > 128 µM
MIC [12]: 128 µM (≈ 252 µg/mL)
MIC [13]: ≥ 128 µM
MIC [14]: 8 µM (≈ 15.7 µg/mL)

CC[C@H](C)[C@H](NC(=O)[C@@H](N)Cc1ccccc1)C(=O)N[C@@H](CCCCN)C(=O)N[C@@H](Cc1c[nH]c2ccccc12)C(=O)N[C@@H](CCCN=C(N)N)C(=O)N[C@@H](Cc1ccccc1)C(=O)N[C@@H](CCCN=C(N)N)C(=O)N[C@@H](CCCN=C(N)N)C(=O)N[C@@H](Cc1c[nH]c2ccccc12)C(=O)N[C@@H](CCCCN)C(=O)N[C@@H](CCCCN)C(=O)N[C@@H](CCCN=C(N)N)C(=O)N[C@@H](CCCCN)C(N)=O [FIKWRFRRWKKRK]
MIC [15]: 5.66 µM (≈ 10.9 µg/mL)
MIC [16]: 22.6 µM (≈ 43.8 µg/mL)
MIC [17]: 8 µM (≈ 15.5 µg/mL)
MIC [3]: 4 µM (≈ 7.74 µg/mL)

CC[C@H](C)[C@H](NC(=O)[C@H](CCCN=C(N)N)NC(=O)[C@H](C)NC(=O)[C@H](CC(C)C)NC(=O)[C@@H](N)CCCN=C(N)N)C(=O)N[C@H](C(=O)N[C@H](C(=O)N[C@H](C(=O)N[C@@H](CCCN=C(N)N)C(=O)N[C@@H](Cc1c[nH]c2ccccc12)C(=O)N[C@@H](C)C(=O)N[C@@H](CCCN=C(N)N)C(N)=O)[C@@H](C)CC)C(C)C)C(C)C [RLARIVVIRWAR]
MIC [5]: 5.3 µM (≈ 7.99 µg/mL)
MIC [15]: 16 µM (≈ 24.1 µg/mL)
MIC (Candida albicans): 5.3 µM (≈ 7.99 µg/mL)
MIC [7]: 2.65 µM (≈ 4 µg/mL)
MIC [18]: 5.3 µM (≈ 7.99 µg/mL)
MIC [16]: 16 µM (≈ 24.1 µg/mL)
MIC [17]: 16 µM (≈ 24.1 µg/mL)
MIC (Escherichia coli UB1005): 2.65 µM (≈ 4 µg/mL)
MIC [3]: 16 µM (≈ 24.1 µg/mL)
MIC [19]: 10.6 µM (≈ 16 µg/mL)
MIC [4]: 1.33 µM (≈ 2 µg/mL)

CC(C)[C@H](NC(=O)[C@H](C)NC(=O)[C@H](CCCN=C(N)N)NC(=O)[C@H](CCCN=C(N)N)NC(=O)[C@H](Cc1c[nH]c2ccccc12)NC(=O)[C@H](Cc1c[nH]c2ccccc12)NC(=O)CN)C(=O)N[C@@H](C)C(=O)N[C@@H](CCCCN)C(=O)N[C@H](C(=O)N[C@@H](CCCN=C(N)N)C(=O)N[C@@H](CCCCN)C(N)=O)C(C)C [GWWRRAVAKVRK]
MIC [20]: 12.5 µM (≈ 18.9 µg/mL)
MIC [21]: 25 µM (≈ 37.8 µg/mL)
MIC [22]: 3.1 µM (≈ 4.69 µg/mL)
MIC (Aureobasidium pullulans): 25 µM (≈ 37.8 µg/mL)
MIC [23]: 3.1 µM (≈ 4.69 µg/mL)
MIC [24]: 1.6 µM (≈ 2.42 µg/mL)

CC(C)C[C@H](NC(=O)[C@H](CS)NC(=O)[C@H](Cc1cnc[nH]1)NC(=O)[C@H](C)NC(=O)[C@H](C)NC(=O)[C@H](CS)NC(=O)[C@H](C)NC(=O)[C@H](C)NC(=O)[C@@H](N)CC(=O)O)C(=O)N[C@@H](Cc1c[nH]c2ccccc12)C(=O)N[C@@H](CCCN=C(N)N)C(N)=O [DAACAAHCLWR]
MIC [25]: ≥ 164 µM
MIC [26]: > 164 µM
MIC [27]: > 164 µM
MIC [28]: ≥ 164 µM
MIC [29]: ≥ 164 µM

CC(C)[C@H](NC(=O)[C@H](CCCCN)NC(=O)[C@H](C)NC(=O)[C@@H](NC(=O)[C@@H](NC(=O)[C@H](CCCN=C(N)N)NC(=O)[C@H](CCCN=C(N)N)NC(=O)[C@H](Cc1c[nH]c2ccccc12)NC(=O)[C@H](Cc1c[nH]c2ccccc12)NC(=O)[C@H](C)N)[C@@H](C)O)C(C)C)C(=O)N[C@@H](CCCN=C(N)N)C(=O)N[C@@H](CCCCN)C(N)=O [AWWRRTVAKVRK]
MIC [20]: 25 µM (≈ 38.9 µg/mL)
MIC [21]: 25 µM (≈ 38.9 µg/mL)
MIC [22]: 12.5 µM (≈ 19.4 µg/mL)
MIC (Aureobasidium pullulans): ≥ 50 µM
MIC [23]: 6.3 µM (≈ 9.8 µg/mL)
MIC [24]: 0.8 µM (≈ 1.24 µg/mL)
